Experimental data: patent publication US11332459B2 (TEIJIN PHARMA LIMITED, priority 2017, dated 2022)
Counter-ions that a name gives are not always drawn.

Molecular target: T1, human TRPC6 (Homo sapiens, UniProt Q9Y210)
T1 construct: expressed in transfected cells
T1 sequence (Q9Y210 1-931): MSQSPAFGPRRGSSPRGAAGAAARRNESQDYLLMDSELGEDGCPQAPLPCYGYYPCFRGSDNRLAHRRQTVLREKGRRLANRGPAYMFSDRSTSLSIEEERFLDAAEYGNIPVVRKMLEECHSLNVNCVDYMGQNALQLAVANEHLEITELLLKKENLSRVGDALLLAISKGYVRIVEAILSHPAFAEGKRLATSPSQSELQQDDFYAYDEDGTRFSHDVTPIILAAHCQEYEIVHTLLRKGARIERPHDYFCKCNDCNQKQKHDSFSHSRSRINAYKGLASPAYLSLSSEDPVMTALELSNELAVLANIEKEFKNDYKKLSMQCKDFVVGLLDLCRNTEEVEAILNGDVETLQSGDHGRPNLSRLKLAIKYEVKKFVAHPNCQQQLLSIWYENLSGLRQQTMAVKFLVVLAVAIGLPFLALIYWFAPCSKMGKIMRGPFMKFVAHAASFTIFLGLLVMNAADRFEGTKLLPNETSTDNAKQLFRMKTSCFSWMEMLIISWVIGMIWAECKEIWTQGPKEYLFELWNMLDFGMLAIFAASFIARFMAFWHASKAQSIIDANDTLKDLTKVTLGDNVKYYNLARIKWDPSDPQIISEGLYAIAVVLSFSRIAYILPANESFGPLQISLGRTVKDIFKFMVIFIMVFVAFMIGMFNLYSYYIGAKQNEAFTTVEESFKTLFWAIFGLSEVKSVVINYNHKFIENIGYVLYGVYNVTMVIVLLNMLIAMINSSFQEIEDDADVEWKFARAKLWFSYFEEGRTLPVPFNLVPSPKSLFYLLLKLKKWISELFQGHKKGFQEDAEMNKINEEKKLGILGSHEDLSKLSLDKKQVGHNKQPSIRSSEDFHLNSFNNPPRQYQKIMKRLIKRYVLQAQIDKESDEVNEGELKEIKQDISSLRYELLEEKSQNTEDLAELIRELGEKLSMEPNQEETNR
Assay: TRPC6 calcium flux assay (FLIPR, OAG-stimulated calcium influx)
Assay type: cell-based
Conditions: HEK293 cells stably transfected with human TRPC6, read-out: hTRPC6 Potency
How it was run: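 IC50 derived by plotting background-corrected peak fluorescence (180 s window, normalized to OAG-triggered signal vs buffer) against dose. Stable human TRPC6 HEK293 line was dye-loaded, exposed to compound 25 min, then challenged with 50 uM final OAG in 2 mM Ca2+ HEPES buffer pH 7.2, 0.5% DMSO.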

IC50	SMILES
52.4 nM	N[C@@H]1CN(c2nc3cc(F)cc(F)c3n2Cc2ncc(Cl)cn2)CC[C@H]1F [Example 257, (3R,4R)-1-(1-((5-chloro-2-pyrimidinyl)methyl)-5,7-difluoro-1H-benzimidazol-2-yl)-4-fluoro-3-piperidinamine]
> 3750 nM	N[C@@H]1CN(c2nc3cc(F)cc(F)c3n2Cc2nnc(C(F)F)s2)CC[C@H]1F [Example 598, (3R,4R)-1-(1-((5-(difluoromethyl)-1,3,4-thiadiazol-2-yl)methyl)-5,7-difluoro-1H-benzo[d]imidazol-2-yl)-4-fluoropiperidin-3-amine]
133 nM	N#Cc1ccc(Cn2c(N3CCC(F)(F)[C@H](N)C3)nc3cc(C#N)ccc32)cc1 [Example 161, 2-((3R)-3-amino-4,4-difluoro-1-piperidinyl)-1-(4-cyanobenzyl)-1H-benzimidazole-5-carbonitrile]
28.5 nM	CN(CC#N)C(=O)Cn1c(N2CC[C@@H](F)[C@H](N)C2)nc2cc(F)c(F)cc21 [Example 615, 2-(2-((3R,4R)-3-amino-4-fluoropiperidin-1-yl)-5,6-difluoro-1H-benzo[d]imidazol-1-yl)-N-(cyanomethyl)-N-methylacetamide]
169 nM	CN(C)C(=O)Cn1c(N2CC[C@@H](F)[C@H](N)C2)nc2cc(F)ccc21 [Example 576, 2-(2-((3R,4R)-3-amino-4-fluoropiperidin-1-yl)-5-fluoro-1H-benzo[d]imidazol-1-yl)-N,N-dimethylacetamide]
13.5 nM	N#Cc1ccc(Cn2c(N3CCC(F)(F)[C@H](N)C3)nc3cc(C#N)ccc32)nc1 [Example 56, (R)-2-(3-amino-4,4-difluoropiperidin-1-yl)-1-((5-cyanopyridin-2-yl)methyl)-1H-benzo[d]imidazole-5-carbonitrile]
971 nM	N#Cc1ccc(Cn2c(N3C[C@H]4CC[C@@H](N)[C@H]4C3)nc3ccccc32)nc1 [Example 76, 6-((2-((3aR,4R,6aS)-4-aminohexahydrocyclopenta[c]pyrrol-2(1H)-yl)-1H-benzo[d]imidazol-1-yl)methyl)nicotinonitrile hydrochloride]
158 nM	N[C@@H]1CN(c2nc3cc(F)c(F)cc3n2CC(=O)N2CCN(c3cnccn3)CC2)CC[C@H]1F [Example 511, 2-(2-((3R,4R)-3-amino-4-fluoropiperidin-1-yl)-5,6-difluoro-1H-benzo[d]imidazol-1-yl)-1-(4-(pyrazin-2-yl)piperazin-1-yl)ethan-1-one]
1.67 nM	N#Cc1ccc(Cn2c(N3CC[C@@H](F)[C@H](N)C3)nc3c(Cl)cccc32)nc1 [Example 4]
5.15 nM	CN(CC(F)(F)F)C(=O)Cn1c(N2CC[C@@H](F)[C@H](N)C2)nc2cc(F)c(F)cc21 [Example 500, 2-(2-((3R,4R)-3-amino-4-fluoropiperidin-1-yl)-5,6-difluoro-1H-benzo[d]imidazol-1-yl)-N-methyl-N-(2,2,2-trifluoroethyl)acetamide]
> 3750 nM	N#Cc1ccc(Cn2c(N3CCC4(CNC4)C3)nc3ccccc32)nc1 [Example 97, 6-((2-(2,6-diazaspiro[3.4]octan-6-yl)-1H-benzo[d]imidazol-1-yl)methyl)nicotinonitrile]
11.6 nM	N[C@@H]1CN(c2nc3ncc(F)cc3n2Cc2ncc(Cl)cn2)CC[C@H]1F [Example 555, (3R,4R)-1-(1-((5-chloropyrimidin-2-yl)methyl)-6-fluoro-1H-imidazo[4,5-b]pyridin-2-yl)-4-fluoropiperidin-3-amine]
615 nM	CC(C)(C)NC(=O)c1ccc(Cn2c(N3CC[C@@H](F)[C@H](N)C3)nc3ncc(Cl)cc32)nc1 [Example 94, 6-((2-((3R,4R)-3-amino-4-fluoropiperidin-1-yl)-6-chloro-1H-imidazo[4,5-b]pyridin-1-yl)methyl)-N-(tert-butyl)nicotinamide]
376 nM	Cc1nnc(Cn2c(N3CC[C@@H](F)[C@H](N)C3)nc3cc(F)ccc32)s1 [Example 582, (3R,4R)-4-fluoro-1-(5-fluoro-1-((5-methyl-1,3,4-thiadiazol-2-yl)methyl)-1H-benzo[d]imidazol-2-yl)piperidin-3-amine]
47.1 nM	N#Cc1ccc(Cn2c(N3CC[C@@H](CN)C3)nc3ccccc32)cc1 [Example 178, (S)-4-((2-(3-(aminomethyl)pyrrolidin-1-yl)-1H-benzo[d]imidazol-1-yl)methyl)benzonitrile]
61.1 nM	N[C@@H]1CN(c2nc3ccc(F)cc3n2Cc2ncc(Cl)cn2)CC[C@H]1O (single isomer, unassigned) [Example 496]
7.85 nM	N#Cc1ccc(Cn2c(N3CC[C@@H](F)[C@H](N)C3)nc3c(C#N)cc(F)cc32)nc1 [Example 18, 2-((3R,4R)-3-amino-4-fluoropiperidin-1-yl)-1-((5-cyanopyridin-2-yl)methyl)-6-fluoro-1H-benzo[d]imidazole-4-carbonitrile]
6.56 nM	N[C@@H]1CN(c2nc3ccc(Br)cc3n2CC(=O)N2CCC2)CC[C@H]1F [Example 455, 2-(2-((3R,4R)-3-amino-4-fluoropiperidin-1-yl)-6-bromo-1H-benzo[d]imidazol-1-yl)-1-(azetidin-1-yl)ethan-1-one]
743 nM	C[C@@H](c1ccccc1Cl)n1c(N2CC[C@@H](F)[C@H](N)C2)nc2cc(F)c(F)cc21 [Example 325, (3R,4R)-1-(1-((1S)-1-(2-chlorophenyl)ethyl)-5,6-difluoro-1H-benzimidazol-2-yl)-4-fluoro-3-piperidinamine]
1.72 nM	N[C@@H]1CN(c2nc3ccccc3n2Cc2ncc(Br)cn2)CC[C@H]1F [Example 192, (3R,4R)-1-(1-((5-bromopyrimidin-2-yl)methyl)-1H-benzo[d]imidazol-2-yl)-4-fluoropiperidin-3-amine]
1.91 nM	CN[C@H]1CCCN(c2nc3ccc(C(F)(F)F)cc3n2Cc2ccc(C#N)cn2)C1 [Example 139, 6-((2-((3S)-3-(methylamino)-1-piperidinyl)-6-(trifluoromethyl)-1H-benzimidazol-1-yl)methyl)-3-pyridinecarbonitrile]
112 nM	CC(c1ncc(Cl)cn1)n1c(N2CC[C@@H](F)[C@H](N)C2)nc2cc(F)c(F)cc21 (stereo in doubt) [Example 508, (3R,4R)-1-(1-((R)-1-(5-chloropyrimidin-2-yl)ethyl)-5,6-difluoro-1H-benzo[d]imidazol-2-yl)-4-fluoropiperidin-3-amine]
811 nM	Cc1nnc(Cn2c(N3CCC(F)(F)[C@H](N)C3)nc3ccc(F)cc32)s1 [Example 588, (R)-4,4-difluoro-1-(6-fluoro-1-((5-methyl-1,3,4-thiadiazol-2-yl)methyl)-1H-benzo[d]imidazol-2-yl)piperidin-3-amine]
274 nM	N#Cc1ccc(Cn2c(N3CC[C@@H](F)[C@H](N)C3)nc3ncccc32)cc1 (single isomer, unassigned) [Example 415]
70.7 nM	N#Cc1ccc(Cn2c(N3C[C@H]4CC[C@H](N)[C@H]4C3)nc3ccccc32)nc1 [Example 78, 6-((2-((3aR,4S,6aS)-4-aminohexahydrocyclopenta[c]pyrrol-2(1H)-yl)-1H-benzo[d]imidazol-1-yl)methyl)nicotinonitrile hydrochloride]
225 nM	N[C@@H]1CN(c2nc3cc(F)c(F)cc3n2CC(=O)N(CC(F)F)C2CC2)CC[C@H]1F [Example 631, 2-(2-((3R,4R)-3-amino-4-fluoropiperidin-1-yl)-5,6-difluoro-1H-benzo[d]imidazol-1-yl)-N-cyclopropyl-N-(2,2-difluoroethyl)acetamide]
2.18 nM	N#Cc1ccc2nc(N3CC[C@@H](F)[C@H](N)C3)n(Cc3ncc(Br)cn3)c2c1 [Example 200, 2-((3R,4R)-3-amino-4-fluoropiperidin-1-yl)-1-((5-bromopyrimidin-2-yl)methyl)-1H-benzo[d]imidazole-6-carbonitrile]
280 nM	N[C@@H]1CN(c2nc3cc(C(F)(F)F)ccc3n2CC(=O)N2CCC2)CC[C@@H]1F [Example 309, 2-(2-((3R,4S)-3-amino-4-fluoropiperidin-1-yl)-5-(trifluoromethyl)-1H-benzo[d]imidazol-1-yl)-1-(azetidin-1-yl)ethan-1-one]
34 nM	COc1cnc(Cn2c(N3CC[C@@H](F)[C@H](N)C3)nc3cc(F)ccc32)nc1 [Example 446, (3R,4R)-4-fluoro-1-(5-fluoro-1-((5-methoxypyrimidin-2-yl)methyl)-1H-benzo[d]imidazol-2-yl)piperidin-3-amine]
0.433 nM	N#Cc1ccc(Cn2c(N3CCC(F)(F)[C@H](N)C3)nc3ccc(C(F)(F)F)cc32)nc1 [Example 108, 6-((2-((3R)-3-amino-4,4-difluoro-1-piperidinyl)-6-(trifluoromethyl)-1H-benzimidazol-1-yl)methyl)-3-pyridinecarbonitrile]
